The values that follow are results of earlier work, collected in patent US20040120994A1, “Transdermal therapeutic system containing testorone and method for its production thereof” (priority 2001, published 2004).

One series concerns transport proteins. As to conditions: in the blood.

With `C[C@]12CC[C@H]3[C@@H](CCC4=CC(=O)CC[C@@]43C)[C@@H]1CC[C@@H]2O` [testosterone], the plasma half-life entry is “around 80 min”. In the series with transport proteins, the “testosterone bound to transport proteins” value is 98%.
